Test results: the NIST ThermoML archive (doi:10.1016/j.jct.2012.03.002)
± gives the expanded uncertainty stated by the source.

Assays:
[1] = refractive index (Na D-line) (dimensionless); cn = amount concentration of the nth substance listed, in mol/dm3; conditions: 298.15 K, 101 kPa, Liquid, Standard Abbe refractometry
[2] = cn = amount concentration of the nth substance listed, in mol/dm3; conditions: 298.15 K, 101 kPa, Liquid, Alternating current cell with electrodes
[3] = wn = mass fraction of the nth substance listed; conditions: 298.15 K, 101 kPa, Liquid; for viscosity: Capillary tube (Ostwald / Ubbelohde) method; for mass density: Vibrating tube method
[4] = refractive index (Na D-line) (dimensionless); wn = mass fraction of the nth substance listed; conditions: 298.15 K, 101 kPa, Liquid, Standard Abbe refractometry
[5] = 298.15 K, 101 kPa, Liquid; for viscosity: Capillary tube (Ostwald / Ubbelohde) method; for mass density: Vibrating tube method
[6] = refractive index (Na D-line) (dimensionless); conditions: 298.15 K; 101 kPa; Liquid; Standard Abbe refractometry

O=[N+]([O-])c1ccccc1 [nitrobenzene] + [Na+].c1ccc([B-](c2ccccc2)(c2ccccc2)c2ccccc2)cc1
refractive index ([1]; c2 = 0): 1.5493 ± 0.0008

[Na+].c1ccc([B-](c2ccccc2)(c2ccccc2)c2ccccc2)cc1 [sodium tetraphenylboron] + O=[N+]([O-])c1ccccc1
molar conductivity ([2]; c1 = 0.001579): 0.00273 ± 6e-06 S·m2/mol | molar conductivity ([2]; c1 = 0.002187): 0.002689 ± 6e-06 S·m2/mol | molar conductivity ([2]; c1 = 0.002707): 0.00266 ± 6e-06 S·m2/mol | molar conductivity ([2]; c1 = 0.003159): 0.002634 ± 6e-06 S·m2/mol | molar conductivity ([2]; c1 = 0.003902): 0.002597 ± 6e-06 S·m2/mol | molar conductivity ([2]; c1 = 0.004489): 0.002572 ± 6e-06 S·m2/mol | molar conductivity ([2]; c1 = 0.004964): 0.002553 ± 6e-06 S·m2/mol | molar conductivity ([2]; c1 = 0.005966): 0.002516 ± 6e-06 S·m2/mol | molar conductivity ([2]; c1 = 0.006419): 0.0025 ± 6e-06 S·m2/mol | molar conductivity ([2]; c1 = 0.006844): 0.002482 ± 6e-06 S·m2/mol | molar conductivity ([2]; c1 = 0.00722): 0.002471 ± 6e-06 S·m2/mol | molar conductivity ([2]; c1 = 0.007448): 0.002463 ± 6e-06 S·m2/mol | refractive index ([1]; c1 = 0.0042): 1.5498 ± 0.0008 | refractive index ([1]; c1 = 0.0168): 1.5506 ± 0.0008 | refractive index ([1]; c1 = 0.0295): 1.5511 ± 0.0008 | refractive index ([1]; c1 = 0.0423): 1.5518 ± 0.0008 | refractive index ([1]; c1 = 0.0552): 1.5526 ± 0.0008

O=[N+]([O-])c1ccccc1 [nitrobenzene] + C[N+](=O)[O-]
viscosity ([3]; w2 = 0): 1.809 ± 0.039 mPa·s | mass density ([3]; w2 = 0): 1197.7 ± 1.1 kg/m3 | refractive index ([4]; w2 = 0): 1.5493 ± 0.0008

C[N+](=O)[O-] [nitromethane] + [Na+].c1ccc([B-](c2ccccc2)(c2ccccc2)c2ccccc2)cc1
refractive index ([1]; c2 = 0): 1.3799 ± 0.0009

O=[N+]([O-])c1ccccc1 [nitrobenzene]
viscosity [5]: 1.809 ± 0.039 mPa·s | mass density [5]: 1197.7 ± 1.1 kg/m3 | refractive index [6]: 1.5493 ± 0.0008

C[N+](=O)[O-] [nitromethane]
viscosity [5]: 0.614 ± 0.014 mPa·s | mass density [5]: 1128.8 ± 1.4 kg/m3 | refractive index [6]: 1.3799 ± 0.0009

C[N+](=O)[O-] [nitromethane] + O=[N+]([O-])c1ccccc1
viscosity ([3]; w1 = 0.25): 0.918 ± 0.02 mPa·s | viscosity ([3]; w1 = 0.5): 0.827 ± 0.018 mPa·s | viscosity ([3]; w1 = 0.75): 0.745 ± 0.017 mPa·s | viscosity ([3]; w1 = 1): 0.614 ± 0.014 mPa·s | mass density ([3]; w1 = 0.25): 1178.4 ± 1.1 kg/m3 | mass density ([3]; w1 = 0.5): 1161.1 ± 1.2 kg/m3 | mass density ([3]; w1 = 0.75): 1144.7 ± 1.3 kg/m3 | mass density ([3]; w1 = 1): 1128.8 ± 1.4 kg/m3 | refractive index ([4]; w1 = 0.25): 1.5051 ± 0.0008 | refractive index ([4]; w1 = 0.5): 1.4623 ± 0.0008 | refractive index ([4]; w1 = 0.75): 1.4201 ± 0.0009 | refractive index ([4]; w1 = 1): 1.3799 ± 0.0009

[Na+].c1ccc([B-](c2ccccc2)(c2ccccc2)c2ccccc2)cc1 [sodium tetraphenylboron] + C[N+](=O)[O-]
molar conductivity ([2]; c1 = 0.001163): 0.008583 ± 6e-06 S·m2/mol | molar conductivity ([2]; c1 = 0.002132): 0.008413 ± 6e-06 S·m2/mol | molar conductivity ([2]; c1 = 0.002952): 0.008296 ± 6e-06 S·m2/mol | molar conductivity ([2]; c1 = 0.003655): 0.008195 ± 6e-06 S·m2/mol | molar conductivity ([2]; c1 = 0.004797): 0.008057 ± 6e-06 S·m2/mol | molar conductivity ([2]; c1 = 0.005686): 0.007972 ± 6e-06 S·m2/mol | molar conductivity ([2]; c1 = 0.006397): 0.007909 ± 6e-06 S·m2/mol | molar conductivity ([2]; c1 = 0.006701): 0.007878 ± 6e-06 S·m2/mol | molar conductivity ([2]; c1 = 0.007231): 0.007825 ± 6e-06 S·m2/mol | molar conductivity ([2]; c1 = 0.007676): 0.007789 ± 6e-06 S·m2/mol | molar conductivity ([2]; c1 = 0.008055): 0.00776 ± 6e-06 S·m2/mol | molar conductivity ([2]; c1 = 0.008382): 0.007739 ± 6e-06 S·m2/mol | refractive index ([1]; c1 = 0.0044): 1.3803 ± 0.0009 | refractive index ([1]; c1 = 0.0178): 1.3811 ± 0.0009 | refractive index ([1]; c1 = 0.0313): 1.3819 ± 0.0009 | refractive index ([1]; c1 = 0.0449): 1.3826 ± 0.0009 | refractive index ([1]; c1 = 0.0586): 1.3837 ± 0.0009
